Laboratory results from US20260183305A1, “METHYLENE BLUE FOR USE IN THERAPY OF HEPATITIS B AND/OR HEPATITIS D INFECTION” (priority 2022, published 2026).
“Also recorded” adds a separate entry of the source.

Columns and labels:
HepNB2.7 cells = assay: MTT cell viability assay, cytotoxicity of MB on HepNB2.7; format: cell-based; details: HepNB2.7, MTT
HDV [1] = assay: MB HDV inhibition assay (HDV RNA by RT-qPCR) on HepG2-NTCP cells; format: cell-based, Hepatitis D Virus; details: MB 2.5 or 1.25 μg/mL; for HDV RNA concentration: HepG2-NTCP
Procedure: (§1) HepG2-NTCP or HepNB2.7 cells were infected with different titers of HDV (10, 50 MOI) and treated with 2.5 or 1.25 μg/ml of MB for 5 hours.
(§2) HepG2-NTCP and HepNB2.7 cells (plated at 10×10^3 cells/well) were infected with 10 or 50 MOI of HDV using PEG (polyethylene glycol) 4% overnight as previously described (Alfaiate D, Lucifora J et al.; cf. above). MB (2.5 or 1.25 μg/ml) was added 16 hrs post HDV infection for 5 h and cells were incubated at room temperature in the dark. Three and six days post infection, RNA was extracted and HDV RNA level was monitored by RT-qPCR in order to determine HDV replication as described below. For HepNB2.7, the level of HBsAg in the supernatant were measured as described below.
(§3) Total intracellular RNA was extracted using the Nucleospin RNA Kit (Macherey-Nagel AG). cDNA was synthesized from 100 ng total RNA using Superscript II and random hexamer primers (Roche Diagnosis). Quantification of HDV was performed by qRT-PCR as described (Alfaiate D, Lucifora J et al), using the primers described by Scholtes & colleagues (Scholtes C, Icard V, Amiri M et al; “Standardized one-step real-time reverse transcription-PCR assay for universal detection and quantification of hepatitis delta virus from clinical samples in the presence of a heterologous internal-control RNA.” J Clin Microbiol 2012;50:2126-2128.) and EEF1A1 as housekeeping gene.
(§4) HepG2-NTCP or HepNB2.7 cells were infected with different titers of HDV (10, 50, 100 MOI) and treated with 2.5 or 1.25 μg/ml of MB for 5 hours. Cells were analyzed at day 3 or day 6 post-infection and HDV replication was assessed by RT-PCR. For HepNB2.7, the level of HBsAg in the supernatant were measured at both time points.
The inhibitory effect of MB on HDV replication on HepG2-NTCP cells was investigated. Cells infected with either 10 or 50 MOI of virus were treated with MB (2.5 or 1.25 μg/ml) and HDV replication was assessed at 3 days (A) or 6 days (B) post infection.

HDV [2] = assay: MB HDV inhibition assay (HDV RNA by RT-qPCR) on HepNB2.7 cells; format: cell-based, Hepatitis D Virus
Procedure: as §1, §2, §3, §4
The inhibitory effect of MB on HDV replication on HepNB2.7 cells was investigated. In a first experiment cells infected with either 10 or 50 MOI were treated with MB (2.5 or 1.25 μg/ml) and HDV replication was assessed at 3 days, or 6 days, post infection.

[3] = system: HBV surface antigen (HBsAg); assay: HBsAg measurement by ELISA in supernatant of HDV infected HepNB2.7 cells; format: cell-based, Hepatitis B Virus
Procedure: as §2
For HepNB2.7, the level of HBsAg in the supernatant were measured at both time points by ELISA (Enzyme-Linked Immosorbent Assay, ABBOTT PRISM® HBsAg) according to the protocol of the manufacturer.
as §4
In a second experiment the secretion of the HBV surface antigen (HBsAg) was measured in the supernatant of cells infected with 10, 50 or 100 MOI and treated with MB (2.5 or 1.25 μg/ml).

[4] = transplacental exposure, mouse; cited from earlier work
Influenza N1H1 virus = details: in vitro, hermetically closed box; cited from earlier work
SARS-COV-2 = details: in vitro, hermetically closed box; cited from earlier work
[5] = Brazilian children, long periods of time; cited from earlier work
[6] = after oral administration; cited from earlier work
[7] = 5 mg/ml solution for injection; cited from earlier work

CN(C)c1ccc2nc3ccc(N(C)C)cc3[s+]c2c1.[Cl-] [MB, [7-(dimethylamino)phenothiazin-3-ylidene]-dimethylazanium, chloride]
long-term cytotoxic effect (percentage of viability) (HepNB2.7 cells; 3 days after incubation with different concentrations of MB): significant toxicity
cytotoxic effect of MB in the presence of light as compared to dark (HepNB2.7 cells; dark vs photoactivated under visible light, 3 days after incubation): not significantly enhanced
HDV RNA concentration (HDV [1]; 10 MOI): too low to distinguish the antiviral impact of MB
HDV RNA concentration (HDV [1]; 50 MOI, 3 and 6 days post infection): clear dose response relationship
antiviral effect of MB against HDV infected HepG2-NTCP cells (HDV [1]; physiological drug concentrations): significant antiviral effect
HDV replication signal (HDV [2]; HepNB2.7, 10 MOI, day 3 and 6): weak signal
effect of MB on viral reproduction (HDV replication) (HDV [2]; HepNB2.7, 50 MOI, day 6 post infection, MB 2.5 or 1.25 μg/ml): dose related effect
viral markers under long-term treatment (extrapolated) (HDV [2]; long-term treatment (weeks instead of days), cell lines, no data shown): complete disappearance of viral markers
secretion of the HBV surface antigen (HBsAg) in the supernatant ([3]; HepNB2.7 infected with 10, 50 or 100 MOI HDV, MB 2.5 or 1.25 μg/ml, all conditions tested): diminished secretion; also recorded: clear-cut dose/response relationship
antiviral effect of MB over time ([3]; results on day 3 and 6): accumulates over time
teratogenicity [4]: teratogenic
antiviral efficacy in the total dark (Influenza N1H1 virus): strong antiviral efficacy
antiviral efficacy in the total dark (SARS-COV-2): strong antiviral efficacy
dose tolerated very well [5]: 20-50 mg/kg per day
bioavailability [6]: 72%
elimination half-life [6]: 18 h
compatibility with 0.9% saline solution [7]: not compatible
compatibility with 5% glucose or 5% dextrose solution [7]: compatible
